Measurements from patent US12228572B2, “Enhanced expression of polo-like kinase 3 (PLK3) in human immunodeficiency virus (HIV)-infected cells” (priority 2021, dated 2025).

Target: T1, human PLK3 (Homo sapiens, UniProt Q9H4B4)
T1 construct: expressed in transfected cells
Format: cell-based

T1 sequence (Q9H4B4 whole entry): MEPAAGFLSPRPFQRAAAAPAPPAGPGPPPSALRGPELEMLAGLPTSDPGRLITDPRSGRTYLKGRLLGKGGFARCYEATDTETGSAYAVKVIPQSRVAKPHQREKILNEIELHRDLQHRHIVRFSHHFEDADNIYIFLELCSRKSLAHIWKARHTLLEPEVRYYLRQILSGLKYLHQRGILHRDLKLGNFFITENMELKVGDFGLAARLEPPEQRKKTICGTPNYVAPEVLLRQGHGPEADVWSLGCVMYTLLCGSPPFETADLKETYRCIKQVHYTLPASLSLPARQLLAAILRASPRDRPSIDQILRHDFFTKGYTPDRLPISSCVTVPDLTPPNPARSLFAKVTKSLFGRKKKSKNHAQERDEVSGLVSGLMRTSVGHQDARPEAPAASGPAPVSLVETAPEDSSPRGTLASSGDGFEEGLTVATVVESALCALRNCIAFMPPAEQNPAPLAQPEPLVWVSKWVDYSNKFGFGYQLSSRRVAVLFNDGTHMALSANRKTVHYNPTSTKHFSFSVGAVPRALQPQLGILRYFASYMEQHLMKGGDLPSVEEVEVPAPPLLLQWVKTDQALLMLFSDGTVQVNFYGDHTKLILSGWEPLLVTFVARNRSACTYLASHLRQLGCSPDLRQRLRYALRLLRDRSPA

With `COc1cc2ncn(-c3cc(OCc4ccccc4C(F)(F)F)c(C(N)=O)s3)c2cc1OC` [GW843682X] the “effect on the anti-HIV-1 ability of human PLK3” value was “can inhibit the anti-HIV-1 ability of human PLK3” and the “expression level of PLK3” value was “not changed”.
